Data published in US9637496B2, “Substituted 7-azabicycles and their use as orexin receptor modulators” (priority 2013, dated 2017).
Like-named read-outs stand apart in the source and are kept apart here.

Columns and labels:
human orexin 2 receptor = human orexin 2 receptor (Homo sapiens (Human), UniProt O43614); assay: Human orexin 2 receptor radioligand binding ([3H]-EMPA competition, HEK293 membranes)
rat orexin 1 receptor = rat orexin 1 receptor (Rattus norvegicus (Rat), UniProt P56718); assay: Rat orexin 1 receptor radioligand binding (competitive binding, HEK293 membranes)
Sequence of rat orexin 1 receptor (P56718 whole entry): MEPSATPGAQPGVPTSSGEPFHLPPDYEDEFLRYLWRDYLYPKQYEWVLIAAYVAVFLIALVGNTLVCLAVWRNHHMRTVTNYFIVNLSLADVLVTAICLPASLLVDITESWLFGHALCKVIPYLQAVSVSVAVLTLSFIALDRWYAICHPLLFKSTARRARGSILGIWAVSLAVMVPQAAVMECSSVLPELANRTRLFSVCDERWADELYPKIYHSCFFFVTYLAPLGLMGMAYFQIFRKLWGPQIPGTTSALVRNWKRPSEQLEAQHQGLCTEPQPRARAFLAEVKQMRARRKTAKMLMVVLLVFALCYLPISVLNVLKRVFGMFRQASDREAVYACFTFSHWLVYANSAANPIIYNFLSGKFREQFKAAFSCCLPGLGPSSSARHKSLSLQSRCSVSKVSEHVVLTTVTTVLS

[1] = rat orexin 1 receptor, Table 2, averages from between 2-20 runs, read-out: rOX1 Ki
[2] = human orexin 2 receptor, Table 2, averages from between 2-20 runs, read-out: hOX2 Ki
[3] = Table 2, further testing, averages from 2-20 runs, read-out: rOX1 Ki
[4] = Table 2, further testing, averages from 2-20 runs, read-out: hOX2 Ki

Sequence of human orexin 2 receptor (O43614 whole entry): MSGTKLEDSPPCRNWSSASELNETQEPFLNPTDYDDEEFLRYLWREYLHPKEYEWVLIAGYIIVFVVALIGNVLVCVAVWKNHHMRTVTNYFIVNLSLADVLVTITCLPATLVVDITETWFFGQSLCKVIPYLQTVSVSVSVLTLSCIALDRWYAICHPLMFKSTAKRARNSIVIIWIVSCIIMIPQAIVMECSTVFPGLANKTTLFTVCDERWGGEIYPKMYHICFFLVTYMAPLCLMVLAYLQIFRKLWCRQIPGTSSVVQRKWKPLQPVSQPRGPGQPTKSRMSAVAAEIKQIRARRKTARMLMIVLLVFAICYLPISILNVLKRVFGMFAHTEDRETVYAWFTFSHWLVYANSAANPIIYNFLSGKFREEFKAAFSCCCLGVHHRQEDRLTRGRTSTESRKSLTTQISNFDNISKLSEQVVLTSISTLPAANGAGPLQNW

For O=C(c1ccccc1-c1cccs1)N1C2CCC1C(COc1ccc(F)cn1)C2 (racemic) [Example 11, (±)-(2-(((5-fluoropyridin-2-yl)oxy)methyl)-7-azabicyclo[2.2.1]heptan-7-yl)(2-(thiophen-2-yl)phenyl)methanone], the Ki (human orexin 2 receptor) was 13 nM.

O=C(c1cc(F)ccc1-c1ncccn1)N1C2CCC1C(COc1ccc(F)cn1)C2 (racemic) [Example 32, (4)-(5-fluoro-2-(pyrimidin-2-yl)phenyl)(2-(((5-fluoropyridin-2-yl)oxy)methyl)-7-azabicyclo[2.2.1]heptan-7-yl)methanone] showed a Ki (human orexin 2 receptor; human orexin 2 receptor, Table 2, averages of 2-20 runs, read-out: hOX2 Ki) of 130 nM.

COc1c(F)cccc1C(=O)N1C2CCC1C(Nc1ccc(F)cn1)C2 (racemic) [Example 237, (±)-(3-fluoro-2-methoxyphenyl)(2-((5-fluoropyridin-2-yl)amino)-7-azabicyclo[2.2.1]heptan-7-yl)methanone] was tested, and the Ki (rat orexin 1 receptor; [1]) was greater than 1000 nM.

O=C(c1cccc(F)c1-n1ccnn1)N1C2CCC1C(Oc1ccc(C(F)(F)F)cn1)C2 (racemic) [Example 424] showed a Ki (rat orexin 1 receptor; [1]) of 2700 nM and a Ki (human orexin 2 receptor; [2]) greater than 10000 nM.

O=C(c1c(F)cccc1-n1nccn1)N1C2CCC1C(Oc1ccc(C(F)(F)F)cn1)C2 (racemic) [Example 425] showed a Ki (rat orexin 1 receptor; [1]) of 587 nM and a Ki (human orexin 2 receptor) of 5100 nM.

For O=C(c1cccnc1-n1nccn1)N1C2CCC1C(Oc1ccc(C(F)(F)F)cn1)C2 (racemic) [Example 426], the Ki (rat orexin 1 receptor) was 5400 nM and the Ki (human orexin 2 receptor) was greater than 10000 nM.

Cc1ccc(C(=O)N2C3CCC2C(Oc2ccc(C(F)(F)F)cn2)C3)c(-n2nccn2)n1 (racemic) [Example 427] gave a Ki (rat orexin 1 receptor) of 560 nM and a Ki (human orexin 2 receptor; [2]) greater than 10000 nM.

In the case of Cc1cnc(-n2nccn2)c(C(=O)N2C3CCC2C(Oc2ccc(C(F)(F)F)cn2)C3)c1 (racemic) [Example 428], the Ki (rat orexin 1 receptor) is reported as 1100 nM and the Ki (human orexin 2 receptor; [2]) is reported as greater than 10000 nM.

Cc1cccc(C(=O)N2C3CCC2C(Oc2ccc(C(F)(F)F)nc2)C3)c1-n1nccn1 (racemic) [Example 437] showed a Ki (rat orexin 1 receptor) greater than 10000 nM and a Ki (human orexin 2 receptor; [2]) greater than 10000 nM.

O=C(c1cccc(F)c1-n1nccn1)N1C2CCC1C(Oc1ccc(C(F)(F)F)nc1)C2 (racemic) [Example 438] showed a Ki (rat orexin 1 receptor; [1]) greater than 10000 nM and a Ki (human orexin 2 receptor; [2]) greater than 10000 nM.

O=C(c1c(F)cccc1-n1nccn1)N1C2CCC1C(Oc1ccc(C(F)(F)F)nc1)C2 (racemic) [Example 439] was tested, and the Ki (rat orexin 1 receptor; [1]) was greater than 10000 nM and the Ki (human orexin 2 receptor; [2]) was greater than 10000 nM.

O=C(c1cccc(F)c1-n1nccn1)N1C2CCC1C(Oc1ncc(Br)cn1)C2 (racemic) [Example 441] gave a Ki (rat orexin 1 receptor) of 1500 nM and a Ki (human orexin 2 receptor; [2]) greater than 10000 nM.

Compound O=C(c1cccc(F)c1-n1nccn1)N1C2CCC1C(Oc1cnc3ccccc3n1)C2 (racemic) [Example 442] has a Ki (rat orexin 1 receptor; [1]) of 349 nM and a Ki (human orexin 2 receptor; [2]) of 1900 nM.

Compound O=C(c1cccc(F)c1-n1nccn1)N1C2CCC1C(Oc1cc(Br)cnc1Cl)C2 (racemic) [Example 443] has a Ki (rat orexin 1 receptor; [1]) greater than 10000 nM and a Ki (human orexin 2 receptor; [2]) greater than 10000 nM.

For O=C(c1cccc(F)c1-n1nccn1)N1C2CCC1C(Oc1cnc(C(F)(F)F)cn1)C2 (racemic) [Example 445, (R/S)-(3-fluoro-2-(2H-1,2,3-triazol-2-yl)phenyl)(2-((5-(trifluoromethyl)pyrazin-2-yl)oxy)-7-azabicyclo[2.2.1]heptan-7-yl)methanone], the Ki (rat orexin 1 receptor; [3]) was 460 nM and the Ki (human orexin 2 receptor; [4]) was greater than 10000 nM.

In the case of Cc1ccc(C(=O)N2C3CCC2C(Oc2cnc(C(F)(F)F)cn2)C3)c(-n2nccn2)n1 (racemic) [Example 446, (R/S)-(6-methyl-2-(2H-1,2,3-triazol-2-yl)pyridin-3-yl)(2-((5-(trifluoromethyl)pyrazin-2-yl)oxy)-7-azabicyclo[2.2.1]heptan-7-yl)methanone], the Ki (rat orexin 1 receptor; [3]) is reported as 4700 nM and the Ki (human orexin 2 receptor; [4]) is reported as greater than 10000 nM.

Cc1cccc(C(=O)N2[C@@H]3CC[C@H]2[C@H](Nc2cnc(C(F)(F)F)cn2)C3)c1-c1ncco1 [Example 266, (3-methyl-2-(oxazol-2-yl)phenyl)((1S,2R,4R)-2-((5-(trifluoromethyl)pyrazin-2-yl)amino)-7-azabicyclo[2.2.1]heptan-7-yl)methanone] showed a Ki (rat orexin 1 receptor; [1]) of 6 nM.
